Reference: patent publication US9340590B2 (priority 2011, dated 2016)
Like-named read-outs stand apart in the source and are kept apart here. Positions of bridges follow the written chain, without caps; N, C: chain ends. Residues, ends and D or L forms follow the SMILES beside them.

What was measured:
Assay in all cases: cell-based
hNav1.7 = hNav1.7 (Homo sapiens, UniProt Q15858); assay type: cell-based
hNav1.5 = hNav1.5 (Homo sapiens, UniProt Q14524)
hNav1.3 = hNav1.3 (Homo sapiens, UniProt Q9NY46); conditions: IonWorks Quattro, use-dependent protocol, hNav1.3; read-out: IWQ Use Nav1.3
[1] = IonWorks Quattro, use-dependent protocol, hNav1.7, read-out: IWQ Use Nav1.7
[2] = IonWorks Quattro, use-dependent protocol, hNav1.5, read-out: IWQ Use Nav1.5

Chain of hNav1.7 (Q15858 whole entry, looked up): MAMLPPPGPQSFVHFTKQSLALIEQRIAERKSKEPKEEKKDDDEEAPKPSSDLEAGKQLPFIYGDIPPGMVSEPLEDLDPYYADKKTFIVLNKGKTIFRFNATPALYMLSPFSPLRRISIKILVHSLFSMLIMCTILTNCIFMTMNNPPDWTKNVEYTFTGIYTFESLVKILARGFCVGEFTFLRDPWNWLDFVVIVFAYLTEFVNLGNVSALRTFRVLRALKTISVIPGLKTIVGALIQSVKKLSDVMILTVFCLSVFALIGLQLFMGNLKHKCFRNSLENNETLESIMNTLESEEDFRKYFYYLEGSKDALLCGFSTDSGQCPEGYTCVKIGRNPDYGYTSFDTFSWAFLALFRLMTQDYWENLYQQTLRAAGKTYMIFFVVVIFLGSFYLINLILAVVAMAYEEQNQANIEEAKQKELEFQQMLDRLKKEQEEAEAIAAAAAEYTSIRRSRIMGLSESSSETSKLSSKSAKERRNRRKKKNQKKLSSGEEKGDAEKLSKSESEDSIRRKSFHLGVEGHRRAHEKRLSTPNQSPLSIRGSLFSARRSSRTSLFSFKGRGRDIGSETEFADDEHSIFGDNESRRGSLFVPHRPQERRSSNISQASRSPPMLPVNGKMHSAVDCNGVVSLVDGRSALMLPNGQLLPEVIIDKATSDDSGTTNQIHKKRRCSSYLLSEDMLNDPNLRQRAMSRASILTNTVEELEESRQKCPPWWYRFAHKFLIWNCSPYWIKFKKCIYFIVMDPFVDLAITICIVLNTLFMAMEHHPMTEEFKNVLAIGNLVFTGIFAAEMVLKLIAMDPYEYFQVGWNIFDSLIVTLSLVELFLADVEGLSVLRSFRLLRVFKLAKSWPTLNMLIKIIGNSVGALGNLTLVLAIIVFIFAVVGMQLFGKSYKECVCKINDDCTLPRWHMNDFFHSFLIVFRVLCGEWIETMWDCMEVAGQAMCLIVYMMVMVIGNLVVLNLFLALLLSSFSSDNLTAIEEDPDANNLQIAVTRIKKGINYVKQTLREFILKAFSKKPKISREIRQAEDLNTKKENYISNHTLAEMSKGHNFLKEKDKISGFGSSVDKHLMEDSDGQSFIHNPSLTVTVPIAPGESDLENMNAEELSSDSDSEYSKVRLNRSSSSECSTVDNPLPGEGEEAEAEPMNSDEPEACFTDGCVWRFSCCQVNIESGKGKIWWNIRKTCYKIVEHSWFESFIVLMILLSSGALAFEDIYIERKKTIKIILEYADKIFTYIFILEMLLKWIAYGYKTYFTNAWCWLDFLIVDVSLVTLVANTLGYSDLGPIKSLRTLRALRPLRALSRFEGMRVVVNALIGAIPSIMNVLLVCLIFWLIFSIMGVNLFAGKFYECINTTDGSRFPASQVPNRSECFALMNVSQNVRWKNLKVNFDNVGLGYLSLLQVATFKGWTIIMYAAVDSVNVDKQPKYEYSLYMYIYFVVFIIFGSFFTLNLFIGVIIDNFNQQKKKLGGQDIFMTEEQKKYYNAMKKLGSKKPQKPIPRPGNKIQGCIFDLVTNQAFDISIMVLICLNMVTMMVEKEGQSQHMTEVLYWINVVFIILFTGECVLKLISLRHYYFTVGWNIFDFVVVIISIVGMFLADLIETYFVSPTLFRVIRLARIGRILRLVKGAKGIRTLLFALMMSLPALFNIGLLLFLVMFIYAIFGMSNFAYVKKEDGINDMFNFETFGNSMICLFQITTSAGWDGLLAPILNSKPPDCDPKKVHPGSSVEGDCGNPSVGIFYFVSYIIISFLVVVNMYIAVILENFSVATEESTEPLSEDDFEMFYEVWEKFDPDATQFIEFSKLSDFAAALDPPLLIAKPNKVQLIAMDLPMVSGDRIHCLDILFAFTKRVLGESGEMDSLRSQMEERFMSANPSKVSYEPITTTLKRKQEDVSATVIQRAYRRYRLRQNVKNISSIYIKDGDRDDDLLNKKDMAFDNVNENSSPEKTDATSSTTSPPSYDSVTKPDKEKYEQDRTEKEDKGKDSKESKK
Chain of hNav1.3 (Q9NY46 whole entry, looked up): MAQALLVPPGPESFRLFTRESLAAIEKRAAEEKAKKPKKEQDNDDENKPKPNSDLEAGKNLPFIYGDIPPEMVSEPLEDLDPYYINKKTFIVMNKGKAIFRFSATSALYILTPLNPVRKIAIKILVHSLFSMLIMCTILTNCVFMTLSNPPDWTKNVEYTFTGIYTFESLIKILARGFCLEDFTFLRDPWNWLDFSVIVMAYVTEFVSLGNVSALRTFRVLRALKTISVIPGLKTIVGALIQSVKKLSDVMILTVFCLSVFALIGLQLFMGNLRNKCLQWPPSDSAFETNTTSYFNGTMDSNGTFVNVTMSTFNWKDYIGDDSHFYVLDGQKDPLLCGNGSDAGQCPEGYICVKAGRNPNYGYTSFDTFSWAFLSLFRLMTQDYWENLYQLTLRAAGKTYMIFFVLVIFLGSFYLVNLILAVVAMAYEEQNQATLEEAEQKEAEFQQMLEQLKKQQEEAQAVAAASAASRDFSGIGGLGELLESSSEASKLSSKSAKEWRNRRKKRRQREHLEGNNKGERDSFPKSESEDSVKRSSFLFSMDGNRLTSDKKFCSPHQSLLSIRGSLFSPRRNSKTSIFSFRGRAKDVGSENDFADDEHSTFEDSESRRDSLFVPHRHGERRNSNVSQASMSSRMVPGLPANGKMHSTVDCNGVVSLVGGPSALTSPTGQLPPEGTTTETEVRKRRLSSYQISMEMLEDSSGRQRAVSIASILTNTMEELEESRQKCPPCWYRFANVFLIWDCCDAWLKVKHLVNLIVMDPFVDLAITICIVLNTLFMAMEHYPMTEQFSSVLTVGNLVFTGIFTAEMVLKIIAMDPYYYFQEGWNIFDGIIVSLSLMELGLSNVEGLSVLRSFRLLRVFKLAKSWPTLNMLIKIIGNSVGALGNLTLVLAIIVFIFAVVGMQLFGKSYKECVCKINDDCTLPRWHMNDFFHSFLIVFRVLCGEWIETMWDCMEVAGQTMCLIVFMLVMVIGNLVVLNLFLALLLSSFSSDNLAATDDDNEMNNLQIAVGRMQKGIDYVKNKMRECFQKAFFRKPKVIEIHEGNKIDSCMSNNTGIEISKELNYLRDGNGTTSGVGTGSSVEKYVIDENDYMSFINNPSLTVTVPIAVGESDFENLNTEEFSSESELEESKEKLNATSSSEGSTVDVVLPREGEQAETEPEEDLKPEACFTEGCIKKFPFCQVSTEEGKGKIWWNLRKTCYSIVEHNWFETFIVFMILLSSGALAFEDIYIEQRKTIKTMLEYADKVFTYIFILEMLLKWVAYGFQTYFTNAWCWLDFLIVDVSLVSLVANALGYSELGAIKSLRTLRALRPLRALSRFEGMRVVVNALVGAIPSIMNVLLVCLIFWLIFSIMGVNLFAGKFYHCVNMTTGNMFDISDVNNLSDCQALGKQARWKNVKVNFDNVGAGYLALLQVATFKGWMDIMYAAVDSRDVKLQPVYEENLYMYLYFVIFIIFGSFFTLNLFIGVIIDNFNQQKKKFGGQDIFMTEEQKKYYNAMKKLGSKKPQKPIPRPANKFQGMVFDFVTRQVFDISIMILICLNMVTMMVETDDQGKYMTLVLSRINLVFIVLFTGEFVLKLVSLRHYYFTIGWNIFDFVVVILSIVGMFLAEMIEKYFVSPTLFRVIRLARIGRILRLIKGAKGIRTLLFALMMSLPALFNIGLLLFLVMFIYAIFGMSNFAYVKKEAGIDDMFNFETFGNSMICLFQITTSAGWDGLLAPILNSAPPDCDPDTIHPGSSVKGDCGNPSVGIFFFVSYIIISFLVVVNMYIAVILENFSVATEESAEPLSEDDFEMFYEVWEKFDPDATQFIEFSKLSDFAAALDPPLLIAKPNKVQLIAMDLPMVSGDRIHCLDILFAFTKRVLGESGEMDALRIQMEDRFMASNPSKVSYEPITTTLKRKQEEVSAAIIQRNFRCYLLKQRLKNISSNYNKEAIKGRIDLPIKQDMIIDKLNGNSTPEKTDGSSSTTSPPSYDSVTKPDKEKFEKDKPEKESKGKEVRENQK

SMILES	IC50 (hNav1.7; [1]) [nM]	IC50 (hNav1.5; [2]) [nM]	IC50 (hNav1.3) [nM]	IC50 (hNav1.7) [nM]	IC50 (hNav1.5; IWQ Use Nav1.5) [nM]
CC[C@H](C)[C@@H]1NC(=O)[C@@H]2CSSC[C@@H]3NC(=O)[C@H](C(C)C)NC(=O)[C@H](CC(C)C)NC(=O)[C@H](CC(N)=O)NC(=O)[C@@H]4CCCN4C(=O)[C@H](CCCNC(=N)N)NC(=O)[C@H](CSSC[C@H](NC(=O)[C@@H](N)CC(=O)O)C(=O)N[C@@H](CC(C)C)C(=O)NCC(=O)NCCC(=O)N[C@@H](CCSC)C(=O)N[C@@H](CCCNC(=N)N)C(=O)N[C@@H](CCCCN)C(=O)N2)NC(=O)[C@H](CSSC[C@@H](C(=O)N[C@@H](CCCCN)C(=O)N[C@@H](Cc2ccc(O)cc2)C(=O)N[C@H](C(=O)N[C@@H](Cc2ccccc2)C(N)=O)C(C)C)NC(=O)[C@H](Cc2c[nH]c4ccccc24)NC(=O)[C@H](CCCCN)NC(=O)[C@H](Cc2c[nH]cn2)NC(=O)[C@H]([C@@H](C)O)NC(=O)[C@H](CCCNC(=N)N)NC(=O)[C@H](CO)NC3=O)NC(=O)[C@H](CCCCN)NC(=O)[C@H](CC(=O)O)NC(=O)[C@H](CC(N)=O)NC(=O)[C@H](CC(=O)O)NC(=O)[C@@H]2CCCN2C1=O [compound 648]	4700	> 5000	> 5000	–	–
CC[C@@H]1NC(=O)CNC(=O)[C@H](CC(C)C)NC(=O)[C@@H](NC(=O)[C@@H](N)CC(=O)O)CSSC[C@@H]2NC(=O)[C@@H]3CSSC[C@@H](C(=O)N[C@@H](CCCCN)C(=O)N[C@@H](Cc4ccc(O)cc4)C(=O)N[C@H](C(=O)N[C@@H](Cc4ccccc4)C(N)=O)C(C)C)NC(=O)[C@H](Cc4c[nH]c5ccccc45)NC(=O)[C@H](CCCCN)NC(=O)[C@H](Cc4cnc[nH]4)NC(=O)[C@H]([C@@H](C)O)NC(=O)[C@H](CCCNC(=N)N)NC(=O)[C@H](CO)NC(=O)[C@H](CSSC[C@H](NC(=O)[C@H](CCCCN)NC(=O)[C@H](CCCNC(=N)N)NC(=O)[C@H](CCSC)NC1=O)C(=O)N[C@@H]([C@@H](C)CC)C(=O)N1CCC[C@H]1C(=O)N[C@@H](CC(=O)O)C(=O)N[C@@H](CC(N)=O)C(=O)N[C@@H](CC(=O)O)C(=O)N[C@@H](CCCCN)C(=O)N3)NC(=O)[C@H](C(C)C)NC(=O)[C@H](CC(C)C)NC(=O)[C@H](CC(N)=O)NC(=O)[C@@H]1CCCN1C(=O)[C@H](CCCNC(=N)N)NC2=O [compound 649]	690	> 5000	1300	–	–
CCC[C@@H]1NC(=O)CNC(=O)[C@H](CC(C)C)NC(=O)[C@@H](NC(=O)[C@@H](N)CC(=O)O)CSSC[C@@H]2NC(=O)[C@@H]3CSSC[C@@H](C(=O)N[C@@H](CCCCN)C(=O)N[C@@H](Cc4ccc(O)cc4)C(=O)N[C@H](C(=O)N[C@@H](Cc4ccccc4)C(N)=O)C(C)C)NC(=O)[C@H](Cc4c[nH]c5ccccc45)NC(=O)[C@H](CCCCN)NC(=O)[C@H](Cc4cnc[nH]4)NC(=O)[C@H]([C@@H](C)O)NC(=O)[C@H](CCCNC(=N)N)NC(=O)[C@H](CO)NC(=O)[C@H](CSSC[C@H](NC(=O)[C@H](CCCCN)NC(=O)[C@H](CCCNC(=N)N)NC(=O)[C@H](CCSC)NC1=O)C(=O)N[C@@H]([C@@H](C)CC)C(=O)N1CCC[C@H]1C(=O)N[C@@H](CC(=O)O)C(=O)N[C@@H](CC(N)=O)C(=O)N[C@@H](CC(=O)O)C(=O)N[C@@H](CCCCN)C(=O)N3)NC(=O)[C@H](C(C)C)NC(=O)[C@H](CC(C)C)NC(=O)[C@H](CC(N)=O)NC(=O)[C@@H]1CCCN1C(=O)[C@H](CCCNC(=N)N)NC2=O [compound 650]	–	> 5000	570	200	–
CCCC[C@@H]1NC(=O)CNC(=O)[C@H](CC(C)C)NC(=O)[C@@H](NC(=O)[C@@H](N)CC(=O)O)CSSC[C@@H]2NC(=O)[C@@H]3CSSC[C@@H](C(=O)N[C@@H](CCCCN)C(=O)N[C@@H](Cc4ccc(O)cc4)C(=O)N[C@H](C(=O)N[C@@H](Cc4ccccc4)C(N)=O)C(C)C)NC(=O)[C@H](Cc4c[nH]c5ccccc45)NC(=O)[C@H](CCCCN)NC(=O)[C@H](Cc4c[nH]cn4)NC(=O)[C@H]([C@@H](C)O)NC(=O)[C@H](CCCNC(=N)N)NC(=O)[C@H](CO)NC(=O)[C@H](CSSC[C@H](NC(=O)[C@H](CCCCN)NC(=O)[C@H](CCCNC(=N)N)NC(=O)[C@H](CCSC)NC1=O)C(=O)N[C@@H]([C@@H](C)CC)C(=O)N1CCC[C@H]1C(=O)N[C@@H](CC(=O)O)C(=O)N[C@@H](CC(N)=O)C(=O)N[C@@H](CC(=O)O)C(=O)N[C@@H](CCCCN)C(=O)N3)NC(=O)[C@H](C(C)C)NC(=O)[C@H](CC(C)C)NC(=O)[C@H](CC(N)=O)NC(=O)[C@@H]1CCCN1C(=O)[C@H](CCCNC(=N)N)NC2=O [compound 651]	77	–	170	–	> 5000
CC[C@H](C)[C@@H]1NC(=O)[C@@H]2CSSC[C@@H]3NC(=O)[C@H](C(C)C)NC(=O)[C@H](CC(C)C)NC(=O)[C@H](CC(N)=O)NC(=O)[C@@H]4CCCN4C(=O)[C@H](CCCNC(=N)N)NC(=O)[C@H](CSSC[C@H](NC(=O)[C@@H](N)CC(=O)O)C(=O)N[C@@H](CC(C)C)C(=O)NCC(=O)N(C)[C@@H](Cc4ccccc4)C(=O)N[C@@H](CCSC)C(=O)N[C@@H](CCCNC(=N)N)C(=O)N[C@@H](CCCCN)C(=O)N2)NC(=O)[C@H](CSSC[C@@H](C(=O)N[C@@H](CCCCN)C(=O)N[C@@H](Cc2ccc(O)cc2)C(=O)N[C@H](C(=O)N[C@@H](Cc2ccccc2)C(N)=O)C(C)C)NC(=O)[C@H](Cc2c[nH]c4ccccc24)NC(=O)[C@H](CCCCN)NC(=O)[C@H](Cc2c[nH]cn2)NC(=O)[C@H]([C@@H](C)O)NC(=O)[C@H](CCCNC(=N)N)NC(=O)[C@H](CO)NC3=O)NC(=O)[C@H](CCCCN)NC(=O)[C@H](CC(=O)O)NC(=O)[C@H](CC(N)=O)NC(=O)[C@H](CC(=O)O)NC(=O)[C@@H]2CCCN2C1=O [compound 657]	360	–	280	–	> 5000
CC[C@H](C)[C@@H]1NC(=O)[C@@H]2CSSC[C@@H]3NC(=O)[C@H](C(C)C)NC(=O)[C@H](CC(C)C)NC(=O)[C@H](CC(N)=O)NC(=O)[C@@H]4CCCN4C(=O)[C@H](CCCNC(=N)N)NC(=O)[C@H](CSSC[C@H](NC(=O)[C@@H](N)CC(=O)O)C(=O)N[C@@H](CC(C)C)C(=O)NCC(=O)N[C@@H](C(C)(C)C)C(=O)N[C@@H](CC(C)C)C(=O)N[C@@H](CCCNC(=N)N)C(=O)N[C@@H](CCCCN)C(=O)N2)NC(=O)[C@H](CSSC[C@@H](C(=O)N[C@@H](CCCCN)C(=O)N[C@@H](Cc2ccc(O)cc2)C(=O)N[C@H](C(=O)N[C@@H](Cc2ccccc2)C(N)=O)C(C)C)NC(=O)[C@H](Cc2c[nH]c4ccccc24)NC(=O)[C@H](CCCCN)NC(=O)[C@H](Cc2c[nH]cn2)NC(=O)[C@H]([C@@H](C)O)NC(=O)[C@H](CCCNC(=N)N)NC(=O)[C@H](CO)NC3=O)NC(=O)[C@H](CCCCN)NC(=O)[C@H](CC(=O)O)NC(=O)[C@H](CC(N)=O)NC(=O)[C@H](CC(=O)O)NC(=O)[C@@H]2CCCN2C1=O [compound 659]	260	> 5000	580	–	–
CC[C@H](C)[C@@H]1NC(=O)[C@@H]2CSSC[C@@H]3NC(=O)[C@H](C(C)C)NC(=O)[C@H](CC(C)C)NC(=O)[C@H](CC(N)=O)NC(=O)[C@@H]4CCCN4C(=O)[C@H](CCCNC(=N)N)NC(=O)[C@H](CSSC[C@H](NC(=O)[C@@H](N)CC(=O)O)C(=O)N[C@@H](CC(C)C)C(=O)NCC(=O)N[C@@H](CCC(C)C)C(=O)N[C@@H](CC(C)C)C(=O)N[C@@H](CCCNC(=N)N)C(=O)N[C@@H](CCCCN)C(=O)N2)NC(=O)[C@H](CSSC[C@@H](C(=O)N[C@@H](CCCCN)C(=O)N[C@@H](Cc2ccc(O)cc2)C(=O)N[C@H](C(=O)N[C@@H](Cc2ccccc2)C(N)=O)C(C)C)NC(=O)[C@H](Cc2c[nH]c4ccccc24)NC(=O)[C@H](CCCCN)NC(=O)[C@H](Cc2c[nH]cn2)NC(=O)[C@H]([C@@H](C)O)NC(=O)[C@H](CCCNC(=N)N)NC(=O)[C@H](CO)NC3=O)NC(=O)[C@H](CCCCN)NC(=O)[C@H](CC(=O)O)NC(=O)[C@H](CC(N)=O)NC(=O)[C@H](CC(=O)O)NC(=O)[C@@H]2CCCN2C1=O [compound 660]	31	> 5000	59	–	–
CC[C@H](C)[C@@H]1NC(=O)[C@@H]2CSSC[C@@H]3NC(=O)[C@H](C(C)C)NC(=O)[C@H](CC(C)C)NC(=O)[C@H](CC(N)=O)NC(=O)[C@@H]4CCCN4C(=O)[C@H](CCCNC(=N)N)NC(=O)[C@H](CSSC[C@H](NC(=O)[C@@H](N)CC(=O)O)C(=O)N[C@@H](CC(C)C)C(=O)NCC(=O)N[C@@H](CC(C)C)C(=O)N[C@@H](CC(C)C)C(=O)N[C@@H](CCCNC(=N)N)C(=O)N[C@@H](CCCCN)C(=O)N2)NC(=O)[C@H](CSSC[C@@H](C(=O)N[C@@H](CCCCN)C(=O)N[C@@H](Cc2ccc(O)cc2)C(=O)N[C@H](C(=O)N[C@@H](Cc2ccccc2)C(N)=O)C(C)C)NC(=O)[C@H](Cc2c[nH]c4ccccc24)NC(=O)[C@H](CCCCN)NC(=O)[C@H](Cc2c[nH]cn2)NC(=O)[C@H]([C@@H](C)O)NC(=O)[C@H](CCCNC(=N)N)NC(=O)[C@H](CO)NC3=O)NC(=O)[C@H](CCCCN)NC(=O)[C@H](CC(=O)O)NC(=O)[C@H](CC(N)=O)NC(=O)[C@H](CC(=O)O)NC(=O)[C@@H]2CCCN2C1=O [compound 661] (H-DCLGLLRKCIPDNDKCCRPNLVCSRTHKWCKYVF-NH2; disulfide 2-17, 9-23, 16-30)	95	> 5000	320	–	–
